ChEMBL document CHEMBL5331113 (J Med Chem, 2023)
Values belong to the compound of their own block, whether it stands above or below them. Active and inactive are the calls of the source. The rule behind the calls is not given here.

Assays:
[1] = Competitive binding affinity to humanized mouse succinate receptor 1 N181.31E/K2697.32N/G84EL1W mutant assessed as inhibition constant incubated for 5 mins in the presence of TUG-2384 by BRET assay
[2] = biological target: T1, Succinate receptor 1 (Homo sapiens, UniProt Q9BXA5); assay: Competitive binding affinity to N-terminal Nluc-tagged human succinate receptor 1 expressed in Flp-In-T-REx-293 cells assessed as inhibition constant incubated for 5 mins in the presence of TUG-2465 by BRET assay; type: cell-based
T1 sequence (Q9BXA5 whole entry): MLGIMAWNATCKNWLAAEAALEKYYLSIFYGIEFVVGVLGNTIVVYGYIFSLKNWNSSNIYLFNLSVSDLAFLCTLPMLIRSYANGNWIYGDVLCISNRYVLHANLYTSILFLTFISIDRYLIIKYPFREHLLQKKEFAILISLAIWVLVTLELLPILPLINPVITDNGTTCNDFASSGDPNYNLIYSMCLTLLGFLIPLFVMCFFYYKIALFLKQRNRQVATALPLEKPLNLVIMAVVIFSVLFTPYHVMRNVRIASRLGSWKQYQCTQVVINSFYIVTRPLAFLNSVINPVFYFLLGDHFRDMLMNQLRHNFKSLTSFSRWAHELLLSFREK

[3] = cells; conditions: Mus musculus, HEK-293T, 5 min, read-out: pEC50 (converted)
[4] = test system: HEK293T; assay: Antagonist activity at mouse succinate receptor 1 N181.31E/K2697.32N mutant expressed in HEK293T cells co-transfected with Galphai-Rluc8/Ggamma8-GFP2/Gbeta3 assessed as inhibition of succinate induced G protein activation incubated for 5 mins by luminescence based BRET assay; type: cell-based
[5] = test system: HEK293T; assay: Antagonist activity at mouse succinate receptor 1 N181.31E/K2697.32N/G84EL1W mutant expressed in HEK293T cells co-transfected with Galphai-Rluc8/Ggamma8-GFP2/Gbeta3 assessed as inhibition of succinate induced G protein activation incubated for 5 mins by luminescence based BRET assay; type: cell-based; conditions: filed as antagonist
[6] = biological target: T2, Succinate receptor 1 (Homo sapiens) (UniProt Q9BXA5); conditions: Flp-In-T-REx-293, filed as agonist, time 30.0 min
T2 sequence (whole entry): T1 sequence (Q9BXA5 whole entry)

- pKi [1]: < 4.5
- Ki [2]: 7.94 µM
Compound: O=C(O)CCc1cccc(Oc2ccc(Oc3cccc4cnccc34)cc2C(F)(F)F)c1

- EC50 [3]: 52.5 µM
Compound: O=C(O)CCC(=O)O [SUCCINIC ACID]

Compound: CN1CCN(Cc2ccc(-c3cccc(C(=O)Nc4ccccc4CC(=O)O)c3)cc2)CC1
- Activity [4]: inactive
- Activity [5]: Active

- pEC50 [6]: Active
Compound: CC(C)(C)OC(=O)NCCCCCCOc1ccc(-c2cccc(C(=O)Nc3ccccc3CC(=O)O)c2)cc1
